Results as given in patent publication US8435978B2, “Substituted sulfonamide compounds” (Gruenenthal GmbH, priority 2006, dated 2013).

Key:
[1] = tested on: formalin-induced pain behavior; experiment: Formalin test in the mouse (phase 2, chronic pain component); format: in vivo; conditions: iv, 5 min. before formalin injection, observation 21 to 24 minutes after formalin
Method: The formalin test (Dubuisson, D. and Dennis, S. G., 1977, Pain, 4, 161-174) represents a model for both acute and chronic pain. By means of a single formalin injection into the dorsal side of a rear paw, a biphasic nociceptive reaction is induced in freely mobile test animals; the reaction is detected by observing three behaviour patterns which are clearly distinguishable from one another. The reaction is two-phase: phase 1=immediate reaction (duration up to 10 min., shaking of the paw, licking), phase 2=late reaction (after a rest phase; likewise shaking of the paw, licking; duration up to 60 min.). The 1st phase reflects a direct stimulation of the peripheral nocisensors with high spinal nociceptive input (acute pain phase); the 2nd phase reflects a spinal and peripheral hypersensitization (chronic pain phase). In the studies described here, the chronic pain component (phase 2) has been evaluated. Formalin in a volume of 20 μl and a concentration of 1% is administered subcutaneously into the dorsal side of the right rear paw of each animal. The specific changes in behavior, such as lifting, shaking or licking of the paw (score 3, Dubuisson & Dennis, 1977), are observed and recorded in the observation period of 21 to 24 minutes following the formalin injection. The behaviour of the animals after administration of the substance (n=10 per dose of substance) was compared with a control group which received vehicle (n=10). Based on the quantification of the pain behavior, the action of the substance in the formalin test was determined as the change in percent compared with the control. The ED50 calculations (ED50=mean effective dose) were carried out by regression analysis according to the method of Litchfield and Wilcoxon (Litchfield, J. T., Wilcoxon, J. J., 1949, J. Pharmacol. Exp. Ther. 96, 99-113). The time of administration before the formalin injection was chosen in dependence on the mode of administration of the compounds according to the invention (intravenous: 5 min.).

[2] = tested on: Bradykinin Receptor 1 (B1R)-mediated formation of IL-6 in IMR-90 fibroblasts; experiment: Inhibition of the B1R-mediated formation of IL-6 in IMR-90 fibroblasts (IL-6 ELISA); format: cell-based, human; conditions: antagonist 10 μM
From the text: The pro-inflammatory cytokines TNFα (or IL-1) lead in various cell types, such as, for example, fibroblasts, to an activation, which brings about inter alia enhanced expression of B1R. Subsequent stimulation of these cells with a B1R agonist results in the formation of further pro-inflammatory cytokines, such as, for example, IL-6. The chronification of inflammations is thereby promoted. Treatment with a B1R antagonist should lead to inhibition of the B1R agonist-induced IL-6 formation. By way of example, a B1R antagonist identified in the FLIPR assay was tested in this respect.
The human fibroblast cell line IMR-90 (ATCC, CCL-186) was passaged in culture medium (Ham's F12 nutrient mixture, Gibco Invitrogen GmbH, Karlsruhe Germany with 10% FBS, fetal bovine serum, Gibco, Invitrogen GmbH, Karlsruhe Germany; 0.1 mM non-essential amino acids, Gibco, 11140-035, 1 mM sodium pyruvate, Euro Clone, ECM0542D; 1.5 g/l sodium bicarbonate, Euro Clone, ECM0980D) on 80 cm^2 bottles (Nunc; 178905) (ratio:1:2 to 1:6; medium replaced every 3-4 days) and plated out for experiments on 96-well plates (Greiner bio-one; No. 655180) with 1×10^5 cells per well. The cells are incubated overnight at 37° C. and 5% CO2.
For activation with TNFα (human, recombinant, expressed in E. coli, SIGMA-ALDRICH T6674, 10 ng/ml) alone or TNFα combined with the human B1R agonist Lys-Des-Arg^9-bradykinin (Lys-Des-Arg^9-BK), the IMR-90 fibroblasts were incubated overnight at 37° C. and 5% CO2 in culture medium. The final concentrations of Lys-Des-Arg^9-BK were 1000 nM or 10 nM. Some IMR-90 stimulation batches additionally contained the B1R antagonist of Example 8 in a final concentration of 10 μM. 24 hours after activation, in each case 150 μl of culture medium were removed from all the different stimulation batches and were transferred to a new plate and frozen. After thawing of the supernatants, the IL-6 content was determined by means of a commercially available IL-6 Elisa.
ELISA Assay (Procedure, Modified According the Manufacturer's Specifications):
Elisa kit: from: BIOSOURCE; CytoSets™, Art. No.: CHC 1264
The above-described processes were carried out with Example compound 8.

[3] = TNFα 10 ng/ml, 24 hours after activation

`COc1cc(C)c(S(=O)(=O)N2CCCCC2COCC(=O)N2CCN(C3CCN(C)CC3)CC2)c(C)c1` (stereo not drawn) [Example 8, 2-[1-(4-methoxy-2,6-dimethyl-phenylsulfonyl)-piperidin-2-ylmethoxy]-1-[4-(1-methyl-piperidin-4-yl)-piperazin-1-yl]-ethanone] was tested, and the ED50 [1] was 12.8 mg/kg, the “inhibition of the activation of IL-6 formation” value ([2]; TNFα + relatively high dose of Lys-Des-Arg^9-BK (1000 nM)) was “still partially inhibited” and the “inhibition of the activation of IL-6 formation” value ([2]; TNFα + relatively low dose of Lys-Des-Arg^9-BK (10 nM)) was “eliminated almost completely”. For the same compound, the “Production of IL-6 (pg/ml) by IMR-90 fibroblasts, TNFα + Lys-Des-Arg^9-BK (10 nM)” value [2, 3] was 119 pg/mL, the “Production of IL-6 (pg/ml) by IMR-90 fibroblasts, TNFα + Lys-Des-Arg^9-BK (1000 nM)” value [2, 3] was 483 pg/mL and the “Production of IL-6 (pg/ml) by IMR-90 fibroblasts, TNFα alone” value [2, 3] was 136 pg/mL.
